The values below come from ChEMBL document CHEMBL4627306, “Novel cilengitide-based cyclic RGD peptides as αvβ3 integrin inhibitors” (Bioorg Med Chem Lett, 2020).

pIC50: −log10 of the molar value. Activity calls are given as the source filed them. No cut-off for these calls is given here.

The target of assay [1] is Integrin alpha-V/beta-3 (Homo sapiens, UniProt P05106+P06756). As to the kind of experiment: Inhibition of vitronectin binding to recombinant human integrin alphaV (Phe31 to Val992 residues) beta3 (Gly27 to Asp718 residues) expressed in CHO cells by ELISA based solid phase binding assay. The class given is cell-based. For orientation: An ELISA detects its analyte on a solid surface through an enzyme-linked reagent.

In assay [2] the target is Integrin alpha-V/beta-5 (Homo sapiens, UniProt P06756+P18084). As to the kind of experiment: Inhibition of vitronectin binding to recombinant human integrin alphaV (Phe31 to Val992 residues) beta5 (Gly24 to Asn719 residues) expressed in CHO cells by ELISA based solid phase binding assay. The class given is cell-based.
The target of assay [3] is Integrin alpha-V/beta-6 (Homo sapiens, UniProt P06756+P18564). As to the kind of experiment: Inhibition of latency-associated peptide/TGF-beta binding to recombinant human integrin alphaV (Phe31 to Val992 residues) beta6 (Gly22 to Asn707 residues) expressed in CHO cells by ELISA based solid phase binding assay. The class given is cell-based.
Assay [4] addresses Integrin alpha-V/beta-8 (Homo sapiens, UniProt P06756+P26012). As to the kind of experiment: Inhibition of latency-associated peptide/TGF-beta binding to recombinant human integrin alphaV (Phe31 to Val992 residues) beta8 (Glu43 to Arg684 residues) expressed in CHO cells by ELISA based solid phase binding assay. The class given is cell-based.
The target in assay [5] is Integrin alpha-5/beta-1 (Homo sapiens, UniProt P05556+P08648). As to the kind of experiment: Inhibition of fibronectin binding to recombinant human integrin alpha5 (Phe42 to Tyr995 residues) beta1 (Gln21 to Asp728 residues) expressed in CHO cells by ELISA based solid phase binding assay. Format: cell-based.
Assay [6] addresses Integrin alpha-IIb/beta-3 (Homo sapiens, UniProt P05106+P08514). As to the kind of experiment: Inhibition of fibrinogen binding to human platelet integrin alpha2b beta3 by ELISA based solid phase binding assay.
For assay [7], the system named is HUVEC. As to the kind of experiment: Antiproliferative activity against HUVEC assessed as effect on cell viability up to 30 uM after 24 hrs by trypan blue assay. Format: functional, cell-based. The settings on record: Homo sapiens.
The test system of assay [8] is HUVEC. As to the kind of experiment: Inhibition of tube formation in HUVEC up to 30 uM after 24 hrs […]. Format: functional, cell-based. The settings on record: Homo sapiens.

In general, pIC50 refers to the negative decadic logarithm of the IC50, by convention in mol/L. In the case of `N=C(N)NCCC[C@@H]1NC(=O)C2(CCCCC2)NC(=O)[C@@H](Cc2ccccc2)NC(=O)[C@H](CC(=O)O)NC(=O)CNC1=O`, the pIC50 in assay [1] was 8.48; in assay [2], 7.20; in assay [3], 6.22; in assay [4] it was 5.82; in assay [5], 7.06; in assay [6] it was less than 5.00. In assay [7], the outcome was inactive. Further, the inhibition result in assay [8] was “inactive”.
As for `CC1(C)NC(=O)[C@@H](Cc2ccccc2)NC(=O)[C@H](CC(=O)O)NC(=O)CNC(=O)[C@H](CCCNC(=N)N)NC1=O`, the pIC50 is 8.26 in assay [1]; 7.30 in assay [2]; 6.42 in assay [3]; 6.09 in assay [4]; 6.85 in assay [5]; less than 5.00 in assay [6]. Moreover, the result in assay [7] was inactive. In addition, the inhibition result in assay [8] was “inactive”.
In the case of `COc1c2cccc1C(=O)N[C@@H](CCCNC(=N)N)C(=O)NCC(=O)N[C@@H](CC(=O)O)C(=O)N[C@H](Cc1ccccc1)C(=O)N2`, the pIC50 in assay [1] was 7.14; in assay [2], 5.31; in assay [3], 6.15; in assay [4], 5.16; in assay [5] it was 6.04; in assay [6], 5.31. The outcome in assay [7] was inactive. Further, the inhibition result in assay [8] is “inactive”.
In the case of `N=C(N)NCCC[C@@H]1NC(=O)CC2(CCCCC2)CNC(=O)[C@@H](Cc2ccccc2)NC(=O)[C@H](CC(=O)O)NC(=O)CNC1=O`, the pIC50 was 8.00 in assay [1]; 6.52 in assay [2]; 5.71 in assay [3]; 5.40 in assay [4]; 6.21 in assay [5]; 6.18 in assay [6]. The result in assay [7] was inactive. Further, the inhibition result in assay [8] is “inactive”.
In the case of `C[Si]1(C)C[C@@H]2C(=O)N[C@@H](CCCNC(=N)N)C(=O)NCC(=O)NC(CC(=O)O)C(=O)NC(Cc3ccccc3)C(=O)N2C1` (single isomer, unassigned), the pIC50 in assay [1] was 7.96; in assay [2] it was 7.18; in assay [3] it was 6.75; in assay [4], 6.50; in assay [5] it was 5.97; in assay [6] it was less than 5.00. Besides, in assay [7], the outcome was inactive. Further, the inhibition result in assay [8] is “inactive”.
